According to patent US11020395B2, “Cycloalkyl substituted triazole compounds as agonists of the APJ receptor” (AMGEN INC., priority 2016, dated 2021):
pEC50: −log10 of the molar value.

Target: human APJ receptor (Homo sapiens (Human), UniProt P35414)
Assay: [35S]GTPγS binding assay on membranes from CHO cells stably expressing human APJ receptor
Format: biochemical
Conditions: [35S]GTPγS SPA, read-out: Activity hAPJ SPA EC50 IP
Method: [^35S]GTPγS Binding The human APJ receptor was cloned by polymerase chain reaction and the gene encoding the receptor was subcloned in pFLAG-CMV™-3 expression vector (Sigma, Saint Louis, Mo. USA) in-house at Amgen. A GTPγS binding assay was performed on membranes prepared from CHO cells stably expressing human APJ receptor. The optimum experimental conditions for the concentrations of GDP, MgCl2, and NaCl in the assay buffer were initially determined. […] Incubation was at RT for 90 min and the microplate was read using a ViewLux™ ultra HTS Microplate Imager (PerkinElmer, Inc.). All the results presented are means of several independent experiments and analyzed by non-linear regression methods using the commercially available program Prism (GraphPad, San Diego, Calif.) providing the EC50 values detailed in Table 25.

human APJ receptor, sequence (P35414 whole entry): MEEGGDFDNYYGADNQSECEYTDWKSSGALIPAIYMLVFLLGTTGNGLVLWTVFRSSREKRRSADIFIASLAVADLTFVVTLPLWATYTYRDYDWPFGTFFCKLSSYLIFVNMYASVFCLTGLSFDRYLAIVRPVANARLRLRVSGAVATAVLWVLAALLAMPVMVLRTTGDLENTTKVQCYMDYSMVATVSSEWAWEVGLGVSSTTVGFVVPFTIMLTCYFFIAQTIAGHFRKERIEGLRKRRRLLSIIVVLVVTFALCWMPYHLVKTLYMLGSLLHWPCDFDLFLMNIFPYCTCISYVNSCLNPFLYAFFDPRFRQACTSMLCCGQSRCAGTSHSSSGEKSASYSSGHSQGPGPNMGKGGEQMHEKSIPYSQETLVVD

Row | Molecule | pEC50
1 | (2S,3R)-3-(5-chloropyrimidin-2-yl)-N-(5-((R)-2,2-difluorocyclopropyl)-4-(2,6-dimethoxyphenyl)-4H-1,2,4-triazol-3-yl)butane-2-sulfonamide or (2S,3R)-3-(5-chloropyrimidin-2-yl)-N-(5-((S)-2,2-difluorocyclopropyl)-4-(2,6-dimethoxyphenyl)-4H-1,2,4-triazol-3-yl)butane-2-sulfonamide [Example 221.0] | 7.74
2 | COc1ncnc(OC)c1-n1c(NS(=O)(=O)[C@@H](C)[C@H](OC)c2ncc(Cl)cn2)nnc1C1CCCC1 [Example 19.0, (1R,2S)-1-(5-chloropyrimidin-2-yl)-N-(5-cyclopentyl-4-(4,6-dimethoxypyrimidin-5-yl)-4H-1,2,4-triazol-3-yl)-1-methoxypropane-2-sulfonamide] | 8.96
3 | COc1cccc(OC)c1-n1c(NS(=O)(=O)[C@@H](C)[C@H](OC)c2ncc(Cl)cn2)nnc1[C@H]1C[C@H](F)C1 (single isomer, unassigned) [Example 151.0, (1R,2S)-1-(5-chloropyrimidin-2-yl)-N-(4-(2,6-dimethoxyphenyl)-5-((1r,3S)-3-fluorocyclobutyl)-4H-1,2,4-triazol-3-yl)-1-methoxypropane-2-sulfonamide or (1R,2S)-1-(5-chloropyrimidin-2-yl)-N-(4-(2,6-dimethoxyphenyl)-5-((1r,3R)-3-fluorocyclobutyl)-4H-1,2,4-triazol-3-yl)-1-methoxypropane-2-sulfonamide] | 8.27
4 | COc1ncnc(OC)c1-n1c(NS(=O)(=O)[C@@H](C)[C@H](OC)c2ncc(Cl)cn2)nnc1[C@H]1C[C@@H](C(F)(F)F)C1 (single isomer, unassigned) [Example 178.0, (1R,2S)-1-(5-chloropyrimidin-2-yl)-N-(4-(4,6-dimethoxypyrimidin-5-yl)-5-((1s,3R)-3-(trifluoromethyl)cyclobutyl)-4H-1,2,4-triazol-3-yl)-1-methoxypropane-2-sulfonamide or (1R,2S)-1-(5-chloropyrimidin-2-yl)-N-(4-(4,6-dimethoxypyrimidin-5-yl)-5-((1r,3S)-3-(trifluoromethyl)cyclobutyl)-4H-1,2,4-triazol-3-yl)-1-methoxypropane-2-sulfonamide] | 8.19
5 | COc1cccc(OC)c1-n1c(NS(=O)(=O)[C@@H](C)[C@@H](OC(C)C)c2ncc(C)cn2)nnc1[C@H]1C[C@@H](OC)C1 (racemic) [Example 227.0, (1S,2S)-N-(4-(2,6-dimethoxyphenyl)-5-(trans-3-methoxycyclobutyl)-4H-1,2,4-triazol-3-yl)-1-(5-methyl-2-pyrimidinyl)-1-(2-propanyloxy)-2-propanesulfonamide or (1S,2S)-N-(4-(2,6-dimethoxyphenyl)-5-(cis-3-methoxycyclobutyl)-4H-1,2,4-triazol-3-yl)-1-(5-methyl-2-pyrimidinyl)-1-(2-propanyloxy)-2-propanesulfonamide] | 8.57
6 | CO[C@H](c1ncc(Cl)cn1)[C@H](C)S(=O)(=O)Nc1nnc([C@H]2C[C@H](CO)C2)n1C(C)C (single isomer, unassigned) [Example 137.0, (1R,2S)-1-(5-chloro-2-pyrimidinyl)-N-(5-(trans-3-(hydroxymethyl)cyclobutyl)-4-(2-propanyl)-4H-1,2,4-triazol-3-yl)-1-methoxy-2-propanesulfonamide or (1R,2S)-1-(5-chloro-2-pyrimidinyl)-N-(5-(cis-3-(hydroxymethyl)cyclobutyl)-4-(2-propanyl)-4H-1,2,4-triazol-3-yl)-1-methoxy-2-propanesulfonamide] | 6.47
7 | COc1cccc(OC)c1-n1c(NS(=O)(=O)[C@@H](C)[C@H](OC)c2ncc(Cl)cn2)nnc1[C@H]1CC[C@@H](C#N)CC1 (single isomer, unassigned) [Example 199.0, (1R,2S)-1-(5-chloropyrimidin-2-yl)-N-(5-((1r,4R)-4-cyanocyclohexyl)-4-(2,6-dimethoxyphenyl)-4H-1,2,4-triazol-3-yl)-1-methoxypropane-2-sulfonamide or (1R,2S)-1-(5-chloropyrimidin-2-yl)-N-(5-((1s,4R)-4-cyanocyclohexyl)-4-(2,6-dimethoxyphenyl)-4H-1,2,4-triazol-3-yl)-1-methoxypropane-2-sulfonamide] | 8.09
8 | COCC1(n2c(NS(=O)(=O)[C@@H](C)[C@H](OC)c3ncc(Cl)cn3)nnc2[C@H]2C[C@H](CO)C2)CC1 (single isomer, unassigned) [Example 133.0, (1R,2S)-1-(5-chloro-2-pyriminidyl)-N-(5-(trans-3-(hydroxymethyl)cyclobutyl)-4-(1-(methoxymethyl)cyclopropyl)-4H-1,2,4-triazol-3-yl)-1-methoxy-2-propanesulfonamide or (1R,2S)-1-(5-chloro-2-pyrimidinyl)-N-(5-(cis-3-(hydroxymethyl)cyclobutyl)-4-(1-(methoxymethyl)cyclopropyl)-4H-1,2,4-triazol-3-yl)-1-methoxy-2-propanesulfonamide] | 6.92
9 | COc1cccc(OC)c1-n1c(NS(=O)(=O)[C@@H](C)[C@H](C)c2ncc(Cl)cn2)nnc1C1CCC1 [Example 143.0] | 8.39
10 | COc1cccc(OC)c1-n1c(NS(=O)(=O)[C@@H](C)[C@H](OC)c2ncc(Cl)cn2)nnc1[C@H]1C[C@@H](CO)C1 (single isomer, unassigned) [Example 124.0, (1R,2S)-1-(5-chloro-2-pyrimidinyl)-N-(4-(2,6-dimethoxyphenyl)-5-(cis-3-(hydroxymethyl)cyclobutyl)-4H-1,2,4-triazol-3-yl)-1-methoxy-2-propanesulfonamide or (1R,2S)-1-(5-chloro-2-pyrimidinyl)-N-(4-(2,6-dimethoxyphenyl)-5-(trans-3-(hydroxymethyl)cyclobutyl)-4H-1,2,4-triazol-3-yl)-1-methoxy-2-propanesulfonamide] | 7.31
11 | COc1cccc(OC)c1-n1c(NS(=O)(=O)[C@@H](C)[C@H](C)c2ncc(C)cn2)nnc1[C@H]1C[C@H](Cl)C1 (single isomer, unassigned) [Example 193.0, (2S,3R)-N-(5-((1r,3S)-3-chlorocyclobutyl)-4-(2,6-dimethoxyphenyl)-4H-1,2,4-triazol-3-yl)-3-(5-methylpyrimidin-2-yl)butane-2-sulfonamide or (2S,3R)-N-(5-((1s,3R)-3-chlorocyclobutyl)-4-(2,6-dimethoxyphenyl)-4H-1,2,4-triazol-3-yl)-3-(5-methylpyrimidin-2-yl)butane-2-sulfonamide] | 8.00
12 | COc1ncnc(OC)c1-n1c(NS(=O)(=O)[C@@H](C)[C@H](OC)c2ncc(Cl)cn2)nnc1[C@@H]1CC[C@@H]1F (single isomer, unassigned) [Example 179.0, (1R,2S)-1-(5-chloropyrimidin-2-yl)-N-(4-(4,6-dimethoxypyrimidin-5-yl)-5-((1S,2S)-2-fluorocyclobutyl)-4H-1,2,4-triazol-3-yl)-1-methoxypropane-2-sulfonamide or (1R,2S)-1-(5-chloropyrimidin-2-yl)-N-(4-(4,6-dimethoxypyrimidin-5-yl)-5-((1R,2R)-2-fluorocyclobutyl)-4H-1,2,4-triazol-3-yl)-1-methoxypropane-2-sulfonamide] | 7.34
13 | (1R,2S)-1-(5-chloropyrimidin-2-yl)-N-(4-(2,6-dimethoxyphenyl)-5-((R)-3-oxocyclopentyl)-4H-1,2,4-triazol-3-yl)-1-methoxypropane-2-sulfonamide or (1R,2S)-1-(5-chloropyrimidin-2-yl)-N-(4-(2,6-dimethoxyphenyl)-5-((S)-3-oxocyclopentyl)-4H-1,2,4-triazol-3-yl)-1-methoxypropane-2-sulfonamide [Example 224.0] | 7.42
14 | (1R,2S)-1-(5-chloropyrimidin-2-yl)-N-(4-(4,6-dimethoxypyrimidin-5-yl)-5-((R)-spiro[2.2]pentan-1-yl)-4H-1,2,4-triazol-3-yl)-1-methoxypropane-2-sulfonamideor (1R,2S)-1-(5-chloropyrimidin-2-yl)-N-(4-(4,6-dimethoxypyrimidin-5-yl)-5-((S)-spiro[2.2]pentan-1-yl)-4H-1,2,4-triazol-3-yl)-1-methoxypropane-2-sulfonamide [Example 105.0] | 9.04
15 | C=C1CC(c2nnc(NS(=O)(=O)[C@@H](C)[C@H](OC)c3ncc(Cl)cn3)n2-c2c(OC)ncnc2OC)C1 [Example 118.0] | 9.00
16 | COc1cccc(OC)c1-n1c(NS(=O)(=O)[C@@H](C)[C@H](OC)c2ncc(Cl)cn2)nnc1[C@H]1CCC1(F)F (single isomer, unassigned) [Example 160.0, (1R,2S)-1-(5-chloropyrimidin-2-yl)-N-(5-((R)-2,2-difluorocyclobutyl)-4-(2,6-dimethoxyphenyl)-4H-1,2,4-triazol-3-yl)-1-methoxypropane-2-sulfonamide or (1R,2S)-1-(5-chloropyrimidin-2-yl)-N-(5-((S)-2,2-difluorocyclobutyl)-4-(2,6-dimethoxyphenyl)-4H-1,2,4-triazol-3-yl)-1-methoxypropane-2-sulfonamide] | 7.57
17 | COc1cccc(OC)c1-n1c(NS(=O)(=O)[C@@H](C)[C@H](OC)c2ncc(Cl)cn2)nnc1C1CCC1 [Example 93.0, (1R,2S)-1-(5-chloropyrimidin-2-yl)-N-(5-cyclobutyl-4-(2,6-dimethoxyphenyl)-4H-1,2,4-triazol-3-yl)-1-methoxypropane-2-sulfonamide] | 9.04
